Reference: publication PMC7315563, “Bioactive fluorenes. Part III: 2,7-dichloro-9H-fluorene-based thiazolidinone and azetidinone analogues as anticancer and antimicrobial against multidrug resistant strains agents” (BMC Chemistry, 2020)
Values after ≈ are worked out from the molar mass of the structure shown.

Assays:
[1] = test system: A549 human lung cancer cells; assay: cell viability assay (MTT); type: cell-based; settings: 24 h; for viability at 1 µg/mL: read-out: Validity (%) for sample concentrations (µg/mL) 1; for viability at 10 µg/mL: read-out: Validity (%) for sample concentrations (µg/mL) 10; for viability at 31.25 µg/mL: read-out: Validity (%) for sample concentrations (µg/mL) 31.25; for viability at 62.5 µg/mL: 62.50 µg/mL, read-out: Validity (%) for sample concentrations (µg/mL) 62.50; for viability at 125 µg/mL: read-out: Validity (%) for sample concentrations (µg/mL) 125; for viability at 250 µg/mL: read-out: Validity (%) for sample concentrations (µg/mL) 250; for viability at 500 µg/mL: read-out: Validity (%) for sample concentrations (µg/mL) 500; for viability at 1000 µg/mL: read-out: Validity (%) for sample concentrations (µg/mL) 1000
[2] = test system: Acinetobacter baumannii (A. baumannii), multidrug resistant clinical isolate; assay: agar well diffusion assay; type: cell-based; settings: 500 µg/mL of tested compound, 24 h
Summary of the method: (§1)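 Multidrug-resistant clinical isolates swabbed on Mueller–Hinton agar at about 1–5 × 10^5 CFU/mL; 0.5 cm wells received 50 μL compound at 500 μg/mL in 1% DMSO. Incubation 24 h, 37 °C for bacteria and C. albicans, 25 °C for Aspergillus; inhibition zone diameter measured in mm.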

[3] = test system: Staphylococcus aureus (S. aureus), multidrug resistant clinical isolate; assay: agar well diffusion assay; type: cell-based; settings: Staphylococcus aureus; S. aureus; 500 µg/mL of tested compound; 24 h
Summary of the method: as §1

[4] = test system: MDA-MB-231 human breast cancer cells; assay: cell viability assay (MTT); type: cell-based; settings: 24 h; for viability at 1 µg/mL: read-out: Validity (%) for sample concentrations (µg/mL) 1; for viability at 10 µg/mL: read-out: Validity (%) for sample concentrations (µg/mL) 10; for viability at 31.25 µg/mL: read-out: Validity (%) for sample concentrations (µg/mL) 31.25; for viability at 62.5 µg/mL: read-out: Validity (%) for sample concentrations (µg/mL) 62.5; for viability at 125 µg/mL: read-out: Validity (%) for sample concentrations (µg/mL) 125; for viability at 250 µg/mL: read-out: Validity (%) for sample concentrations (µg/mL) 250; for viability at 500 µg/mL: read-out: Validity (%) for sample concentrations (µg/mL) 500
Summary of the method: (§2)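 MTT read-out (absorbance 570 nm) after 24 h compound exposure. Doses 0–500 µg/mL (0, 1, 10, 31.25, 62.5, 125, 250, 500). RPMI-1640/10% FBS, 5000 cells/well.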

[5] = test system: WI-38 human normal fibroblast cells; assay: cell viability assay (MTT); type: cell-based; settings: 24 h; for viability at 31.25 µg/mL: read-out: Validity (%) for sample concentrations (µg/mL) 31.25; for viability at 62.5 µg/mL: 62.50 µg/mL, read-out: Validity (%) for sample concentrations (µg/mL) 62.50; for viability at 125 µg/mL: read-out: Validity (%) for sample concentrations (µg/mL) 125; for viability at 250 µg/mL: read-out: Validity (%) for sample concentrations (µg/mL) 250; for viability at 500 µg/mL: read-out: Validity (%) for sample concentrations (µg/mL) 500
Summary of the method: as §2

[6] = test system: methicillin-resistant Staphylococcus aureus (MRSA); assay: agar well diffusion assay; type: cell-based; settings: Staphylococcus aureus, 500 µg/mL of tested compound, 24 h
Summary of the method: as §1

[7] = test system: Pseudomonas aeruginosa (P. aeruginosa), multidrug resistant clinical isolate; assay: agar well diffusion assay; type: cell-based; settings: 24 h, 500 µg/mL of tested compound
Summary of the method: as §1

[8] = test system: Escherichia coli (E. coli), multidrug resistant clinical isolate; assay: agar well diffusion assay; type: cell-based; settings: 24 h, 500 µg/mL of tested compound
Summary of the method: as §1

[9] = test system: Klebsiella pneumoniae (K. pneumoniae), multidrug resistant clinical isolate; assay: agar well diffusion assay; type: cell-based; settings: 24 h, 500 µg/mL of tested compound
Summary of the method: as §1

S. aureus = assay: MIC by broth microdilution method (resazurin end point); type: cell-based; settings: Staphylococcus aureus; S. aureus; 24 h at 37 °C; read-out: MIC
Method: (§3) Determination of Minimum inhibitory concentrations (MIC) of flourene derivatives was done using broth microdilution method. The procedure involved preparation of twofold dilutions of the fluorene derivatives ranging from (500–7.8 μg/mL) in sterile Mueller–Hinton broth inside the wells of 96-well microplate (Sarstedt, Germany). The inoculums of test strains prepared from fresh overnight cultures were adjusted to 0.5 McFarland standards, which equals to 1–2 × 10^8 CFU/mL for bacteria, the procedure was done according to CLSI 2012 [42]. […] For this assay the positive control agents were vancomycin (range: 0.7–50 μg/mL), gentamicin (range: 0.15–10 μg/mL) and the negative control was 1% DMSO.
(§4) For proper determination of the MIC end point resazurin dye has been used. A stock solution of resazurin sodium salt powder (Titan Biotech) was prepared at 0.02% (wt/vol) in distilled water, sterilized by filtration through a […] filter into a sterile light protected container then stored protected from light at 4 °C for up to 1 week, or at − […] for long term use, then 10–15% resazurin solution of the total volume in wells was added to each well and incubation for 1–4 h at 37 °C was done. A change in color from blue to pink indicates the growth of bacteria, and MIC was defined as the lowest concentration of the drug that prevented this change in color.

E. coli = assay: as above; type: cell-based; settings: Escherichia coli, 24 h at 37 °C
Method: as §3, §4

MRSA = assay: as above; type: cell-based; settings: Staphylococcus aureus, 24 h at 37 °C, read-out: MIC
Method: as §3, §4

P. aeruginosa = assay: as above; type: cell-based; settings: Pseudomonas aeruginosa, 24 h at 37 °C
Method: as §3, §4

| Compound | viability at 1 µg/mL [1] | viability at 10 µg/mL [1] | viability at 31.25 µg/mL [1] | viability at 62.5 µg/mL [1] | viability at 125 µg/mL [1] | viability at 250 µg/mL [1] | viability at 500 µg/mL [1] | viability at 1000 µg/mL [1] | IC50 [1] | zone of inhibition at 500 µg/mL [3] | viability at 1 µg/mL [4] | viability at 10 µg/mL [4] | viability at 31.25 µg/mL [4] | viability at 62.5 µg/mL [4] | viability at 125 µg/mL [4] | viability at 250 µg/mL [4] | viability at 500 µg/mL [4] | IC50 [4] | viability at 31.25 µg/mL [5] | viability at 62.5 µg/mL [5] | also measured |
| --- | --- | --- | --- | --- | --- | --- | --- | --- | --- | --- | --- | --- | --- | --- | --- | --- | --- | --- | --- | --- | --- |
| O=C1C(Cl)C(c2ccc([N+](=O)[O-])cc2)N1c1nc(-c2cc(Cl)cc3c2-c2ccc(Cl)cc2C3)cs1 (stereo not drawn) [6f, 3-Chloro-1-(4-(2,7-dichloro-9H-fluoren-4-yl)thiazol-2-yl)-4-(4-nitrophenyl)azetidin-2-one] | 91.3% | 89.8% | 86.2% | 83.2% | 67.3% | 46.6% | 38.6% | 25.4% | 230 µg/mL (≈ 424 µM) | 10 mm | 91.8% | 89.6% | 83% | 72.4% | 59.7% | 37.2% | 28.9% | 188 µg/mL (≈ 346 µM) | 49% | 44.8% | zone of inhibition at 500 µg/mL [2]: 5 mm; viability at 125 µg/mL [5]: 35.6%; viability at 250 µg/mL [5]: 32.3%; viability at 500 µg/mL [5]: 30.4%; IC50 [5]: 29 µg/mL (≈ 53.4 µM); melting point: 114 to 116 °C |
| COc1cc(C2C(Cl)C(=O)N2c2nc(-c3cc(Cl)cc4c3-c3ccc(Cl)cc3C4)cs2)ccc1O (stereo not drawn) [6h, 3-chloro-1-(4-(2,7-dichloro-9H-fluoren-4-yl)thiazol-2-yl)-4-(4-hydroxy-3-methoxyphenyl)azetidin-2-one] | 89.5% | 80.9% | 79% | 75.8% | 63.5% | 37.9% | 33% | 30.3% | 192 µg/mL (≈ 353 µM) | 12 mm | 94.3% | 90.4% | 85.8% | 77.8% | 73.6% | 68.5% | 65.8% | > 500 µg/mL | 85% | 70.6% | zone of inhibition at 500 µg/mL [6]: 15 mm; zone of inhibition at 500 µg/mL [7]: 8 mm; zone of inhibition at 500 µg/mL [8]: 22 mm; zone of inhibition at 500 µg/mL [9]: 3 mm; MIC (S. aureus): 62.5 µg/mL (≈ 115 µM); MIC (E. coli): 31.2 µg/mL (≈ 57.5 µM); MIC (MRSA): 31.2 µg/mL (≈ 57.5 µM); viability at 125 µg/mL [5]: 60.4%; viability at 250 µg/mL [5]: 51.8%; viability at 500 µg/mL [5]: 49.4%; IC50 [5]: 487 µg/mL (≈ 895 µM); melting point: 95 to 97 °C |
| O=C1C(Cl)C(c2ccco2)N1c1nc(-c2cc(Cl)cc3c2-c2ccc(Cl)cc2C3)cs1 (stereo not drawn) [6j, 3-Chloro-1-(4-(2,7-dichloro-9H-fluoren-4-yl)thiazol-2-yl)-4-(furan-2-yl)azetidin-2-one] | 95.6% | 87.8% | 76.6% | 68.2% | 54% | 31.3% | 29.2% | 28.3% | 175 µg/mL (≈ 359 µM) | 9 mm | 96.3% | 92.9% | 75.6% | 73.1% | 69% | 53.2% | 50.6% | 508 µg/mL (≈ 1040 µM) | 87.3% | 81.4% | zone of inhibition at 500 µg/mL [2]: 6 mm; zone of inhibition at 500 µg/mL [8]: 20 mm; MIC (E. coli): 31.2 µg/mL (≈ 64.1 µM); viability at 125 µg/mL [5]: 66.3%; viability at 250 µg/mL [5]: 60.9%; viability at 500 µg/mL [5]: 37.2%; IC50 [5]: 356 µg/mL (≈ 730 µM); melting point: 95 to 98 °C |
| O=C1C(Cl)C(c2ccnc3ccccc23)N1c1nc(-c2cc(Cl)cc3c2-c2ccc(Cl)cc2C3)cs1 (stereo not drawn) [6n, 3-chloro-1-(4-(2,7-dichloro-9H-fluoren-4-yl)thiazol-2-yl)-4-(quinolin-4-yl)azetidin-2-one] | 93.3% | 83.6% | 67.9% | 64.2% | 52.7% | 43.2% | 39.1% | 36.3% | 159 µg/mL (≈ 290 µM) | 9 mm | 96.2% | 89.5% | 86.8% | 81.3% | 73.2% | 67.1% | 59.2% | > 500 µg/mL | 98.6% | 85.9% | zone of inhibition at 500 µg/mL [2]: 5 mm; zone of inhibition at 500 µg/mL [7]: 13 mm; zone of inhibition at 500 µg/mL [8]: 19 mm; zone of inhibition at 500 µg/mL [9]: 5 mm; MIC (P. aeruginosa): 62.5 µg/mL (≈ 114 µM); MIC (E. coli): 31.2 µg/mL (≈ 56.9 µM); viability at 125 µg/mL [5]: 53.2%; viability at 250 µg/mL [5]: 43.3%; viability at 500 µg/mL [5]: 39.8%; IC50 [5]: 212 µg/mL (≈ 386 µM); melting point: 175 to 177 °C |
